In PubChem BioAssay (NCI):
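96-well plates; 48 h exposure; 5 concentrations. Endpoints by linear interpolation between flanking doses. Not reached: highest tested concentration assigned. TGI: concentration producing complete growth inhibition.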

What was measured:
Assay in all cases: NCI-60 cell line screen, 48 h
OVCAR-5 ovarian = test system: OVCAR-5 ovarian
RXF 393 renal = test system: RXF 393 renal
MDA-MB-231 breast = test system: MDA-MB-231 breast
786-0 renal = test system: 786-0 renal
CCRF-CEM leukemia = test system: CCRF-CEM leukemia
ACHN renal = test system: ACHN renal
TK-10 renal = test system: TK-10 renal
CAKI-1 renal = test system: CAKI-1 renal
HOP-62 NSCLC = test system: HOP-62 NSCLC
K-562 leukemia = test system: K-562 leukemia
A498 renal = test system: A498 renal
PC-3 prostate = test system: PC-3 prostate
IGROV1 ovarian = test system: IGROV1 ovarian

SMILES	TGI (OVCAR-5 ovarian) [µM]	TGI (RXF 393 renal) [µM]	TGI (MDA-MB-231 breast) [µM]	TGI (786-0 renal) [µM]	TGI (CCRF-CEM leukemia) [µM]	TGI (ACHN renal) [µM]	TGI (TK-10 renal) [µM]	TGI (CAKI-1 renal) [µM]	TGI (HOP-62 NSCLC) [µM]	TGI (K-562 leukemia) [µM]	TGI (A498 renal) [µM]	TGI (PC-3 prostate) [µM]	TGI (IGROV1 ovarian) [µM]
c1ccc(-c2nn(-c3ccccc3)[n+](-c3ccccc3)n2)cc1	> 100	80.6	> 100	> 93.5	> 39.8	> 100	> 88	> 100	> 100	> 100	> 100	> 20.7	> 100
COc1ccccc1N1CCN(Cn2c(=O)oc3cccnc32)CC1	> 100	> 100	> 100	> 100	> 100	> 100	> 100	> 100	> 100	> 100	> 100	> 100	> 100
COC(=O)/N=[N+](\[O-])C(c1ccc(OC)cc1)C1CCCCC1 (stereo not given)	11.9	28.3	32.2	32.4	20.6	16.3	25.9	10.3	16.9	44.8	25.3	22.5	> 100
OC1COC(n2c3ccc(Br)cc3c3ccc4c5ccccc5[nH]c4c32)C(O)C1O (stereo not given)	12.4	7.37	7.47	17.8	19.3	10.9	13.9	10.6	14.7	13.6	13.9	12	8.21
Nc1nc(Cl)cc(Nc2cc(Cl)cc(Cl)c2)n1	76.7	38.3	36.3	33.7	51.7	56.8	45	48.2	55.1	81.3	44.3	41.5	35.4
COc1ccc(CCNC(=O)Cc2cc(OC)c(OC)cc2CO)cc1OC	> 100	> 100	> 100	> 100	> 100	> 100	> 100	> 100	> 100	> 100	> 100	> 100	> 100
Cc1cccc(NC(=S)N=Nc2c(O)[nH]c3ccccc23)c1	> 100	> 100	> 100	> 100	> 100	> 100		> 100	> 100	> 100	98.1	> 100	> 100
CSc1ccc(/C=C2\N=C(c3ccccc3)N(c3nc4ccc(Sc5ccccc5)cc4[nH]3)C2=O)cc1	83.7	56.9	55.5	50.8	86.8	> 100	60.8	> 94	65.9	66.4	62	> 87.9	> 100
CNC1=CC(=O)C2=C(C1=O)[C@H]1CC[C@]3(C)C(=O)CC[C@H]3[C@@H]1CC2	51	41.1	> 64.8	38.3	30.4	71.4	> 100	33.6	29.8	> 57.5	43.4	38.9	16.1
CN(C)c1ccc(/C=C/C=C(/C#N)c2ccccc2)cc1	> 100	> 79.5	> 93.8	> 62.7	> 77.1	> 100	> 100	> 100	> 97	> 38	98.5	> 100	> 100
Brc1ccc2[nH]cc(-c3nc(-c4c[nH]c5ccccc45)cs3)c2c1	5.37	16	7.68	8.55	> 26.2	8.75	10.5	8.2	21.7	> 20.1	8.47	9.55	8.75
O=[N+]([O-])c1ccc2nc(/C=C(\O)c3ccc(F)cc3)c(/C=C(\O)c3ccc(F)cc3)nc2c1	> 100	40.7	69.6	39.7	26.4	36.6	34.2	> 100	31.7	> 100	52.3	> 100	> 100
Cc1cc2c(c(C=NCc3ccccc3)c1)OC1(C=C2)Oc2ccccc2C(=O)N1C (stereo not given)	56	55.9	78.1	> 100	36.3	69.7	79.7	66.5	> 100	> 100	77.6	75.3	68.1
Cc1ccc(N=C2C(=O)C3=C(OC(C)(C)CC3)c3ccccc32)cc1	3.5	3.12	4.1	3.18	10.1	1.54	4.86	3.16	1.76	0.86	3.81	3.52	2.03
CC[C@H]1OC([C@H](O)C/C=C\C#C[Si](C)(C)C)C/C=C\C[C@H]1O[Si](C)(C)C(C)(C)C (stereo not given in full)	> 100	> 100	> 100	> 100	> 100	> 100		> 100	> 100	> 100	> 100	> 100	> 100
COC(=O)c1c(C)cccc1/C=C1\Cc2cc(C)cc(C)c2C1=O	> 100	58.5	> 100	> 100	> 100	> 100	73	> 100	37.7	> 100	> 100	> 100	> 100
Cc1ccc2c(n1)C(=O)c1ccccc1C2=O	> 56.5	87.2	75.5	> 100	> 100	> 100	> 100	> 89.2	> 85.4	> 84	> 88.4	68.8	73.4

SMILES	TGI (OVCAR-5 ovarian) [µM]	TGI (RXF 393 renal) [µM]	TGI (MDA-MB-231 breast) [µM]	TGI (786-0 renal) [µM]	TGI (CCRF-CEM leukemia) [µM]	TGI (ACHN renal) [µM]	TGI (TK-10 renal) [µM]	TGI (CAKI-1 renal) [µM]	TGI (HOP-62 NSCLC) [µM]	TGI (K-562 leukemia) [µM]	TGI (A498 renal) [µM]	TGI (PC-3 prostate) [µM]	TGI (IGROV1 ovarian) [µM]
CCC(CCCC[C@@H]1CC[C@H]2CC(=O)C[C@@H]12)OC (stereo not given in full)	> 100	> 100	> 100	> 100	> 100	> 100	> 100	> 100	> 100	> 100	> 100	> 100	> 100
COC(=O)/C=c1/c2ccccc2n2nc3ccccc3c12	> 100	> 100	91.3	> 100	> 100	> 100	> 100	> 100	> 100	> 100	93.3	> 100	> 100
COc1cccc(NC(=O)CC(=O)N2N=C(C)C(N=Nc3ccc(S(=O)(=O)c4ccc(N=NC5C(=O)N(C(=O)CC(=O)Nc6cccc(OC)c6)N=C5C)cc4)cc3)C2=O)c1 (stereo not given)	> 100	> 100	> 100	> 100	> 100	> 100	> 100	> 100	> 100	> 100	> 100	> 100	> 100
CC(C)C1OC(=O)/C=C/C=C/C=C/C=C/C=C/CC(O)CC(O)CC(O)CC(O)CC(O)CC(O)CC(O)CC(O)/C=C/C1C (stereo not given)	> 100	> 100	> 100	> 100	> 100	> 100	> 100	> 100	> 100	> 100	> 100	> 100	> 100
Cc1cccc2c1NC(=S)[C@@H]1CCCN1C2=O	> 100	> 100	> 100	> 100	> 100	> 100	> 100	> 100	> 100	> 100	> 100	> 100	> 100
CC(=O)Nc1ccc2c3c(cc(O)c2c1)N(C(=O)CCCCC(=O)Nc1ccc2c4c(cc(O)c2c1)N(C(=O)OC(C)(C)C)CC4CCl)CC3CCl (stereo not given)	10.6	3.26	26.8	9.36	4.53	16.1	> 65.5	71.5	> 33.2	> 100	4.57	> 44.8	> 32.8
COc1ccc(N=C(Nc2ccc(OC)cc2)C(=Nc2ccc(OC)cc2)Nc2ccc(OC)cc2)cc1	> 100	> 100	> 100	> 100	> 100	> 100	> 100	> 100	> 100	> 100	> 100	> 100	> 100
Clc1ccc(C2NN=C3c4ccccc4OCC32)cc1 (stereo not given)	> 100	41.3	6.91	29.5	> 74.8	> 100	> 100	> 100	> 93.5	> 22.9	92.6	64.3	22.3
O=C1CCCCc2cccc(O)c21	> 100	> 100	> 100	> 100	> 100	> 100	> 100	> 100	> 100	> 100	> 100	> 100	> 100
Cc1c(NC(=S)Nc2ccc(Cl)cc2)c(=O)n(-c2ccccc2)n1C	> 100	> 100	> 100	> 100	> 100	> 100	> 100	> 100	> 100	> 100	> 100	> 100	> 100
C=CC[C@H]1[C@H](O[Si](C)(C)C(C)(C)C)C=CC(=O)[C@@H]1CC(=O)N(Cc1ccccc1)Cc1ccccc1	> 100	27.4	41.2	84.9	> 100	> 100	85.6	90.2	> 100	> 100	> 100	> 100	> 100
CNC(=S)N/N=C/c1cccc(C)n1	> 100	97.4	> 89	98.5	> 73.6	> 96.5	> 100	> 100	46.7	> 100	> 71	> 100	> 100
O=[N+]([O-])c1cccnc1NCC1(CO)CC(Cc2ccccc2)C1 (stereo not given)	> 100	> 100	> 100	> 100	> 100	> 100	> 100	> 100	> 100	> 100	> 100	> 100	> 100
CC1(C)N=C(N)N=C(N)N1c1cccc(OCCOc2ccc([N+](=O)[O-])cc2)c1	> 100	> 100	> 100	> 100	> 100	> 100	> 100	> 100	> 100	> 100	> 100	> 100	> 100
CC12Cc3cc4c(cc3C1(c1ccc([N+](=O)[O-])cc1)OCCO2)OCO4 (stereo not given)	> 100	51.6	42.3	> 100	> 100	> 100	> 100	> 100	46.5	> 100	> 100	> 100	85.1
CC1C[C@]2(C)C(=O)N(c3ccccc3)C(=N)[C@@H]2N(C)c2ccccc21 (stereo not given in full)	> 100	> 100	> 100	> 100	> 100	> 100	> 100	> 100	> 100	> 100	> 100	> 100	> 100
COCc1cc2c(cc1/C=C/[N+](=O)[O-])OCO2	30.6	32.3	34.7	33.5	37.7	30.9	30.8	34.2	35.8	> 100	30.8	24.6	51.1
